We go through 22 compounds from paper PMC6968643, “Synthesis and biological evaluation of novel (E)-N'-benzylidene hydrazides as novel c-Met inhibitors through fragment based virtual screening” (Journal of Enzyme Inhibition and Medicinal Chemistry, 2020).

A value given as a limit tells only on which side of the number the result lay.

For one series, the target named is recombinant c-Met kinase (Homo sapiens, UniProt P08581). As to the kind of experiment: Cell-free detection of c-Met kinase activity (ADP-Glo assay). For orientation: In ADP-Glo the light output rises with the ADP produced.
Sequence of recombinant c-Met kinase (P08581 25-1390): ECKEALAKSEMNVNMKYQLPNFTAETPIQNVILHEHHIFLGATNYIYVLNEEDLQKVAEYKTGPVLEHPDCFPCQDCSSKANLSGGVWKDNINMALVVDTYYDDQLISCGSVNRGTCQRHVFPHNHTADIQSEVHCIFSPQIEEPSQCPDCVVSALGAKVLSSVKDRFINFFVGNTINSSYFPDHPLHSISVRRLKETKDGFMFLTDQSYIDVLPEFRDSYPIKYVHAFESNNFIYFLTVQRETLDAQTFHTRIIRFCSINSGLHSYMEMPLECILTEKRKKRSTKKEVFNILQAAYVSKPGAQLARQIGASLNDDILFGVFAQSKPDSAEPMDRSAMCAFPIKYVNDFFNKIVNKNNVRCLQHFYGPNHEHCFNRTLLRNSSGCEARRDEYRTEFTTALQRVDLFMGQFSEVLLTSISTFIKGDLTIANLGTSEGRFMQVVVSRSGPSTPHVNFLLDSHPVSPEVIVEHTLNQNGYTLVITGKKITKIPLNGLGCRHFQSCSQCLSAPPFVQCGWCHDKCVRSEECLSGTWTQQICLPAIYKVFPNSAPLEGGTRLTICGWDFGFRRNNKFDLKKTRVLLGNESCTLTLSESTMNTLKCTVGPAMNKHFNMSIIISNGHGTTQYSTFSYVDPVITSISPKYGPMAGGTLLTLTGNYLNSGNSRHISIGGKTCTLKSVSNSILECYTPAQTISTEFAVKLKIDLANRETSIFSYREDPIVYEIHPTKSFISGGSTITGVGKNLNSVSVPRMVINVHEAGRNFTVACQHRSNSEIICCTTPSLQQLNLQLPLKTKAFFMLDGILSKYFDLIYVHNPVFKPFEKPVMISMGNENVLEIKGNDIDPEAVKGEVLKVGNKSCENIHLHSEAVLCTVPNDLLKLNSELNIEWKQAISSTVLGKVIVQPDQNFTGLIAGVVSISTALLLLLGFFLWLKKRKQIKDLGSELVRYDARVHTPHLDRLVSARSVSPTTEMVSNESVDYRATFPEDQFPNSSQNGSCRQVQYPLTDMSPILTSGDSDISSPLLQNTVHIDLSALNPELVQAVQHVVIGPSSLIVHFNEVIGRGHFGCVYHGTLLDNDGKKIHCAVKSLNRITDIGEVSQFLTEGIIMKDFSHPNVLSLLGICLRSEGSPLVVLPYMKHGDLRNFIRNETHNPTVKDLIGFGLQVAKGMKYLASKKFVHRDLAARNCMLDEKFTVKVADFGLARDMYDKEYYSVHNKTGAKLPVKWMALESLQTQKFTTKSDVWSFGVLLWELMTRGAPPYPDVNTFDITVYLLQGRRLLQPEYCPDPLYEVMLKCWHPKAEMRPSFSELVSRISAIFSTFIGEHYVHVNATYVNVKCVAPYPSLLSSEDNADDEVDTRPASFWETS
The next series has as its target VEGFR-2 (Homo sapiens, UniProt P35968). As to the kind of experiment: Kinase activity against VEGFR-2. Format: biochemical. Particulars: for IC50: Table 3, inhibitory activity (IC50) against VEGFR-2, – = no inhibitory effect. From the text: It was consistent with the QSAR predicted results. […] Both of the proteins belong to the family of tyrosine kinase, which catalyse the phosphorylation of tyrosine. […] While subtle differences may make small molecules show different activities against the two kinases. So we superimposed the two kinases in three dimensions to explore the reason.

Sequence of VEGFR-2 (P35968 20-1356): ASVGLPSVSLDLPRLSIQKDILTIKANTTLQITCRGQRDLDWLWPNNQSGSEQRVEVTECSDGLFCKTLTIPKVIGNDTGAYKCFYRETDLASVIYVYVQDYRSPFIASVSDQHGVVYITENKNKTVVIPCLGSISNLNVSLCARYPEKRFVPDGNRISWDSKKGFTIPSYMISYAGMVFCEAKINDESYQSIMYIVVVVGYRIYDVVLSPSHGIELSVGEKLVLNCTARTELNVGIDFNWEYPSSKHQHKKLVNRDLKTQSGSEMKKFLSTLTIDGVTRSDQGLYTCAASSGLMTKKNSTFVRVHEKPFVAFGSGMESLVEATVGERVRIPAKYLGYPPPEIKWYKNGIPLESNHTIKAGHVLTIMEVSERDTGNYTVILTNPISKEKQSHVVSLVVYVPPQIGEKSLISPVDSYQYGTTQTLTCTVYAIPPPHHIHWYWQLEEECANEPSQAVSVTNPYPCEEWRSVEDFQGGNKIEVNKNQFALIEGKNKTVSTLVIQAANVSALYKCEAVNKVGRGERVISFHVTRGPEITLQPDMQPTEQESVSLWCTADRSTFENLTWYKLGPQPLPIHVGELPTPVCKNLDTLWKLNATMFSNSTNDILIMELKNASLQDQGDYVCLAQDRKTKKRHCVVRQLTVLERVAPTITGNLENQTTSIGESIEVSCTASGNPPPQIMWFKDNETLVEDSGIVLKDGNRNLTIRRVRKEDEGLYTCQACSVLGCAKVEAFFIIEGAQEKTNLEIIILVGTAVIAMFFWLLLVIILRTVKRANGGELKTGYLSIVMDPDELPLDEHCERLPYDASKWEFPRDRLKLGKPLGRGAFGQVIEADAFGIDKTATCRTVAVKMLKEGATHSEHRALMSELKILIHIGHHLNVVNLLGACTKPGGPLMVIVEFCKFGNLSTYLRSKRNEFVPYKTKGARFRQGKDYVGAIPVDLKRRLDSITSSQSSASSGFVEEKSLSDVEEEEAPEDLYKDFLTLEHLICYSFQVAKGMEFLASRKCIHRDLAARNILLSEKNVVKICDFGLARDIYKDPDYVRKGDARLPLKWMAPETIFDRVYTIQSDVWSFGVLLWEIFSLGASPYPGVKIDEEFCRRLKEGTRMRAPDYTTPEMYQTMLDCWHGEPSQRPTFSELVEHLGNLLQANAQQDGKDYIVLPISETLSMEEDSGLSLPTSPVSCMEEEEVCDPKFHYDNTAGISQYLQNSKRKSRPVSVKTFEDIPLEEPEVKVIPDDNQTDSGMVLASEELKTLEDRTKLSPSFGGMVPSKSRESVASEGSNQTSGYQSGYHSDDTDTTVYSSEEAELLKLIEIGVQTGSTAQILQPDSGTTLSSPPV
Protocol for recombinant c-Met kinase: The capacity of the novel compounds for inhibiting c-Met activity was evaluated using a cell-free assay.

As a reminder, the melting point is the temperature, or range, at which the solid turns liquid. What is called IC50 is the concentration at which inhibition is half-maximal. The compound `CC(=O)Nc1cccc(-c2cn(CC(=O)N/N=C/c3ccc(Cl)cc3)nn2)c1` [Compound 10a, (E)-2-(4-(3-acetamidophenyl)-1H-1,2,3-triazol-1-yl)-N'-(4-chlorobenzylidene)] showed a melting point of 234.6 to 234.9 °C. Also, the IC50 at recombinant c-Met kinase was 0.0017 µM.

Turning to `CC(=O)Nc1cccc(-c2cn(CC(=O)N/N=C/c3cccc(Cl)c3)nn2)c1` [Compound 10b, (E)-2-(4-(3-acetamidophenyl)-1H-1,2,3-triazol-1-yl)-N'-(3-chlorobenzylidene)], the melting point was in the range of 255.8 to 256.3 °C. Also, on VEGFR-2, the “activity against VEGFR-2 (in words)” value was “no activity” and the 50% inhibitory concentration (IC50) is above 12000 nM. In addition, the IC50 on recombinant c-Met kinase was found to be 0.00037 µM.

Turning to `CC(=O)Nc1cccc(-c2cn(CC(=O)N/N=C/c3ccc(O)cc3)nn2)c1` [Compound 10c, (E)-2-(4-(3-acetamidophenyl)-1H-1,2,3-triazol-1-yl)-N'-(4-hydroxybenzylidene) acetohydrazide], the melting point fell in the range of 260 to 260.8 °C. Also, the IC50 on recombinant c-Met kinase worked out at 11.2 µM.

The compound `CC(=O)Nc1cccc(-c2cn(CC(=O)N/N=C/c3ccccc3O)nn2)c1` [Compound 10d, (E)-2-(4-(3-acetamidophenyl)-1H-1,2,3-triazol-1-yl)-N'-(2-hydroxybenzylidene) acetohydrazide] displayed a melting point of 253.8 to 254.2 °C. On recombinant c-Met kinase, the IC50 was 0.266 µM.

In turn, `CC(=O)Nc1cccc(-c2cn(CC(=O)N/N=C/c3ccccc3[N+](=O)[O-])nn2)c1` [Compound 10e, (E)-2-(4-(3-acetamidophenyl)-1H-1,2,3-triazol-1-yl)-N'-(2-nitrobenzylidene)acetohydrazide] gave a melting point of 233.2 to 233.8 °C. Besides, the IC50 on recombinant c-Met kinase amounted to 5.86 µM.

The compound `CC(=O)Nc1cccc(-c2cn(CC(=O)N/N=C/c3cc(Cl)ccc3O)nn2)c1` [Compound 10f, (E)-2-(4-(3-acetamidophenyl)-1H-1,2,3-triazol-1-yl)-N'-(5-chloro-2-hydroxybenzylidene) acetohydrazide] had a melting point of 234.6 to 234.9 °C. Besides, the IC50 on VEGFR-2 is 139 nM. In addition, the IC50 on recombinant c-Met kinase was determined as 0.00119 µM.

Compound `CC(=O)Nc1cccc(-c2cn(CC(=O)N/N=C/c3cc(Br)cc(Br)c3O)nn2)c1` [Compound 10g, (E)-2-(4-(3-acetamidophenyl)-1H-1,2,3-triazol-1-yl)-N'-(3,5-dibromo-2-hydroxybenzylidene)acetohydrazide] came in with a melting point of 237 to 237.5 °C. In addition, the IC50 at recombinant c-Met kinase was found to be 8.93 µM.

For the compound `CC(=O)Nc1cccc(-c2cn(CC(=O)N/N=C/c3cc(Br)ccc3O)nn2)c1` [Compound 10h, (E)-2-(4-(3-acetamidophenyl)-1H-1,2,3-triazol-1-yl)-N'-(5-bromo-2-hydroxybenzylidene) acetohydrazide], the melting point was 228.9 to 229.3 °C. For the same compound, the IC50 at recombinant c-Met kinase is above 12 µM.

Turning to `COc1ccc(/C=N/NC(=O)Cn2cc(-c3cccc(NC(C)=O)c3)nn2)c(OC)c1` [Compound 10i, (E)-2-(4-(3-acetamidophenyl)-1H-1,2,3-triazol-1-yl)-N'-(2,4-dimethoxybenzylidene) acetohydrazide], the melting point was in the range of 210.9 to 211.3 °C. For the same compound, at recombinant c-Met kinase, the half-maximal inhibitory concentration (IC50) stood at 0.00173 µM.

In turn, `COc1ccc(/C=N/NC(=O)Cn2cc(-c3cccc(NC(C)=O)c3)nn2)cc1OC` [Compound 10j, (E)-2-(4-(3-acetamidophenyl)-1H-1,2,3-triazol-1-yl)-N'-(3,4-dimethoxybenzylidene) acetohydrazide] returned a melting point of 230 to 230.6 °C. For the same compound, the IC50 on recombinant c-Met kinase turned out to be 0.00542 µM.

`COc1cc(/C=N/NC(=O)Cn2cc(-c3cccc(NC(C)=O)c3)nn2)cc(OC)c1OC` [Compound 10k, (E)-2-(4-(3-acetamidophenyl)-1H-1,2,3-triazol-1-yl)-N'-(3,4,5-trimethoxybenzylidene) acetohydrazide] displayed a melting point of 210.2 to 212.9 °C. For the same compound, the IC50 at recombinant c-Met kinase came out at 0.0915 µM.

Compound `O=C(Cn1cc(-c2ccccc2)nn1)N/N=C/c1ccc(Cl)cc1` [Compound 11a, (E)-N'-(4-chlorobenzylidene)-2-(4-phenyl-1H-1,2,3-triazol-1-yl)acetohydrazide] gave a melting point of 259 to 259.6 °C. Further, at recombinant c-Met kinase, the 50% inhibitory concentration (IC50) is above 12 µM.

Compound `O=C(Cn1cc(-c2ccccc2)nn1)N/N=C/c1cccc(Cl)c1` [Compound 11b, (E)-N'-(3-chlorobenzylidene)-2-(4-phenyl-1H-1,2,3-triazol-1-yl)acetohydrazide] came in with a melting point of 259 to 259.8 °C. Also, the 50% inhibitory concentration (IC50) against VEGFR-2 worked out at 25.3 nM. Besides, the 50% inhibitory concentration (IC50) at recombinant c-Met kinase is 0.00341 µM.

With `O=C(Cn1cc(-c2ccccc2)nn1)N/N=C/c1ccc(O)cc1` [Compound 11c, (E)-N'-(4-hydroxybenzylidene)-2-(4-phenyl-1H-1,2,3-triazol-1-yl)acetohydrazide], the melting point lay within 234 to 234.5 °C. For the same compound, the IC50 at recombinant c-Met kinase amounted to 5.68 µM.

`O=C(Cn1cc(-c2ccccc2)nn1)N/N=C/c1ccccc1O` [Compound 11d, (E)-N'-(2-hydroxybenzylidene)-2-(4-phenyl-1H-1,2,3-triazol-1-yl)acetohydrazide] yielded a melting point of 239 to 239.6 °C. In addition, the concentration for half-maximal inhibition (IC50) on recombinant c-Met kinase is above 12 µM.

`O=C(Cn1cc(-c2ccccc2)nn1)N/N=C/c1ccccc1[N+](=O)[O-]` [Compound 11e, (E)-N'-(2-nitrobenzylidene)-2-(4-phenyl-1H-1,2,3-triazol-1-yl)acetohydrazide] yielded a melting point of 225.2 to 225.6 °C. Also, the half-inhibitory concentration (IC50) at recombinant c-Met kinase was found to be 4.28 µM.

In the case of `O=C(Cn1cc(-c2ccccc2)nn1)N/N=C/c1cc(Cl)ccc1O` [Compound 11f, (E)-N'-(5-chloro-2-hydroxybenzylidene)-2-(4-phenyl-1H-1,2,3-triazol-1-yl)acetohydrazide], the melting point was 240 to 240.6 °C. Also, 9860 nM corresponded to half-maximal inhibition against VEGFR-2 (IC50). Further, the IC50 at recombinant c-Met kinase was above 12 µM.

`O=C(Cn1cc(-c2ccccc2)nn1)N/N=C/c1cc(Br)cc(Br)c1O` [Compound 11g, (E)-N'-(3,5-dibromo-2-hydroxybenzylidene)-2-(4-phenyl-1H-1,2,3-triazol-1-yl) acetohydrazide] came in with a melting point of 231 to 231.5 °C. In addition, at recombinant c-Met kinase, the IC50 was above 12 µM.

On to `O=C(Cn1cc(-c2ccccc2)nn1)N/N=C/c1cc(Br)ccc1O` [Compound 11h, (E)-N'-(5-bromo-2-hydroxybenzylidene)-2-(4-phenyl-1H-1,2,3-triazol-1-yl)acetohydrazide], for which the melting point lay within 233 to 233.5 °C. At recombinant c-Met kinase, the concentration for half-maximal inhibition (IC50) is 0.0119 µM.

With `COc1ccc(/C=N/NC(=O)Cn2cc(-c3ccccc3)nn2)c(OC)c1` [Compound 11i, (E)-N'-(2,4-dimethoxybenzylidene)-2-(4-phenyl-1H-1,2,3-triazol-1-yl)acetohydrazide], the melting point was 230 to 230.4 °C. Further, the IC50 on VEGFR-2 came out at 849 nM. For the same compound, the 50% inhibitory concentration (IC50) on recombinant c-Met kinase was above 12 µM.

Take `COc1ccc(/C=N/NC(=O)Cn2cc(-c3ccccc3)nn2)cc1OC` [Compound 11j, (E)-N'-(3,4-dimethoxybenzylidene)-2-(4-phenyl-1H-1,2,3-triazol-1-yl)acetohydrazide]: the melting point was 232.1 to 232.5 °C. For the same compound, the IC50 at recombinant c-Met kinase was 3.08 µM.

For the compound `COc1cc(/C=N/NC(=O)Cn2cc(-c3ccccc3)nn2)cc(OC)c1OC` [Compound 11k, (E)-2-(4-phenyl-1H-1,2,3-triazol-1-yl)-N'-(3,4,5-trimethoxybenzylidene)acetohydrazide], the melting point fell in the range of 233.5 to 233.8 °C. Further, the concentration for half-maximal inhibition (IC50) on recombinant c-Met kinase is above 12 µM.
